Experimental data published in US8853193B2, “Thienopyrimidines containing a substituted alkyl group for pharmaceutical compositions” (Boehringer Ingelheim International GmbH, priority 2010, dated 2014).
Structures can show the parent of a compound that is named as a salt.

Target: human Mnk2a (Homo sapiens (Human), UniProt Q9HBH9)
Experiment: Mnk2a in vitro kinase assay (indirect competitive fluorescence polarization)
Assay type: biochemical
Details: pre-activated GST-Mnk2a 2.5 nM, 20 μM ATP, 30 μM substrate peptide; read-out: MNK2 IC50
Method: Inhibitory potency of compounds against Mnk1, Mnk2a and other kinases was assessed with assays based on a format known to those skilled in the art as the indirect (competitive) fluorescence polarization. The assay detection system comprises a small fluorophore-labeled phospho-peptide (termed ligand) bound to a phospho-specific antibody. The product generated by the kinase reaction competes with the ligand for antibody binding. Based on the larger molecular volume of the bound ligand, which results in a lower rotation rate in solution, its emitted light has a higher degree of polarization than the one from the free ligand.
In brief, the open reading frames of human Mnk1 and Mnk2a were amplified from cDNA using the forward/reverse primer pairs
(utilized restriction sites underlined), respectively, and cloned into the BamHI and SalI sites of the vector pGEX-4T1 (Amersham, Sweden, cat. no. 27-4580-01). These constructs allow prokaryotic expression of Mnk1 or Mnk2a as fusion protein with a N-terminal glutathione S-transferase (GST) tag, referred to as GST-Mnk1 or GST-Mnk2a. The following expression and purification procedure was identical for GST-Mnk1 and GST-Mnk2a, referring in general to GST-Mnk, when not distinguishing between the two isoforms. Expression of GST-Mnk was in E. coli BL21 (Merck Biosciences, Germany, cat. no. 69449). Cells were grown in LB-Bouillon (Merck, Germany, cat. no. 1.10285) supplemented with 100 μg/ml ampicillin (Sigma, Germany, cat. no. A9518) at 37° C. […] Cells harvested by centrifugation were resuspended in 10 ml lysis buffer (50 mM tris(hydroxymethyl)aminomethane hydrochloride (Tris/HCl, Sigma, Germany, cat. no. T5941) pH 7.5, 300 mM sodium chloride (NaCl, Sigma, Germany, cat. no. S7653), 5% (w/v) glycerol (Sigma, Germany, cat. no. G5516), 3 mM DTT dithiotreitol (DTT, Sigma, Germany, cat. no. D9779)) per gram wet weight cell pellet. Lysates were prepared by disruption of cells with a sonifier and subsequent clearing by centrifugation at 38000 g for 45 min at 4° C.
The lysate was applied to a GSTPrep FF 16/10 column (Amersham, Sweden, cat. no. 17-5234-01) equilibrated with lysis buffer. Removal of unbound material was with 3 column volumes (CV) lysis buffer. Elution was with 2 CV of elution buffer (50 mM Tris/HCl pH 7.5, 300 mM NaCl, 5% (w/v) glycerol, 20 mM glutathione (Sigma, Germany, cat. no. G4251)). Peak fractions were pooled and the protein transferred into storage buffer (50 mM Tris/HCl pH 7.5, 200 mM NaCl, 0.1 mM ethylene glycol[…] bis(2-aminoethylether)-N,N,N′,N′-tetraacetic acid (EGTA, Aldrich, Germany, cat. no. 23, 453-2), 1 mM DTT, 10% (w/v) glycerol, 0.5 M sucrose (Sigma, Germany, cat. no. S0389) by gel filtration on a PD10 desalting column (Amersham, Sweden, cat. no. 17-0851-01). Aliquots were shock frozen in liquid nitrogen and stored at −80° C.
Activation of Mnk1 and Mnk2a was at a concentration of 2.5 μM of either purified GST-Mnk1 or GST-Mnk2a by incubation with 150 nM pre-activated NHis-ERK2 (see ERK2 assay for preparation) and 50 μM adenosine triphosphate (ATP, Sigma, cat. no. A2699) in a buffer comprising 20 mM N-(2-hydroxyethyl)piperazine-N′-(2-ethanesulfonic acid) (HEPES, Fluka, Germany, cat. no 54459)/potassium hydroxide (KOH, Roth, Germany, cat. no 6751.1) pH 7.4, 10 mM magnesium chloride (MgCl2, Sigma, Germany, cat. no. M2670), 0.25 mM DTT, 0.05% (w/v) polyoxyethylene 20 stearylether (Brij 78, Sigma, Germany, cat. no. P4019) (HMDB buffer) for 45 min at 30° C. After the incubation, the preparation was aliquoted into single-use samples, shock frozen in liquid nitrogen, stored at −80° C. and utilized for Mnk1 or Mnk2a kinase assays as detailed below.
The serine residue phosphorylated by Mnk kinases is underlined.

Chain of human Mnk2a (Q9HBH9 whole entry): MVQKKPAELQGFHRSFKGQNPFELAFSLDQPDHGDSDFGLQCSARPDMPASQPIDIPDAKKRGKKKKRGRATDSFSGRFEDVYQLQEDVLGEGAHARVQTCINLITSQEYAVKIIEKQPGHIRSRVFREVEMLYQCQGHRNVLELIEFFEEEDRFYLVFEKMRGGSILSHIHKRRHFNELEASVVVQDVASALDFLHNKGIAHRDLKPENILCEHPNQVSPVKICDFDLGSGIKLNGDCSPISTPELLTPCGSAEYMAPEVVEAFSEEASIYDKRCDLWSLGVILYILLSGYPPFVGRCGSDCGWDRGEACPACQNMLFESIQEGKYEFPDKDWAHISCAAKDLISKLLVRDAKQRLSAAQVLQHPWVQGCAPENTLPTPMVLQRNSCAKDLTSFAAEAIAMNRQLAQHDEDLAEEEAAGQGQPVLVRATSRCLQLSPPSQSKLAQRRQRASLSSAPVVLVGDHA

IC50	SMILES
24 nM	Cc1c(C(=O)NCc2cn(C)cn2)sc2ncnc(Nc3cccnc3OC(C)C)c12 [Compound 36-15, 4-(2-Isopropoxypyridin-3ylamino)-5-methyl-N-((1-methyl-1H-imidazol-4-yl)methyl) thieno[2,3-d]pyrimidine-6-carboxamide]
23 nM	COCC(CF)Oc1cc(F)ccc1Nc1ncnc2sc(C(=O)O)c(C)c12 (stereo not drawn) [Compound 32-6]
17 nM	Cc1c(C(=O)NCCN(C)C)sc2ncnc(Nc3ccc(F)cc3OC(CF)CF)c12 [Compound 23-7, 4-(2-(1,3-difluoro-propan-2-yloxy)-4-fluorophenylamino)-N-(2-(dimethylamino)-ethyl)-5-methylthieno-[2,3-d]-pyrimidine-6-carboxamide]
12 nM	CNC(=O)c1sc2ncnc(Nc3cccnc3OC(C)C(F)(F)F)c2c1C (stereo not drawn) [Compound 21-6, N-Methyl-5-methyl-4-(2-(1,1,1-trifluoro-propan-2-yloxy)-pyridin-3-yl-amino)thieno[2,3-d]pyrimidine-6-N-methylcarboxamide]
13 nM	Cc1c(C(=O)O)sc2ncnc(Nc3ccc(F)cc3OCC(F)F)c12 [Compound 32-4]
35 nM	Cc1c(C(=O)NCCCN(C)C)sc2ncnc(Nc3ccc(F)cc3OCC(C)F)c12 (stereo not drawn) [Compound 32-39]
15 nM	Cc1c(C(=O)O)sc2ncnc(Nc3cccnc3OC(C)C(F)(F)F)c12 (stereo not drawn) [Compound 21-2, 5-Methyl-4-(2-(1,1,1-trifluoropropan-2-yloxy)pyridin-3-ylamino)thieno[2,3-d]pyrimidine-6-carboxylic acid]
8 nM	Cc1c(C(=O)O)sc2ncnc(Nc3ccc(F)cc3OCC3CC3(F)F)c12 (stereo not drawn) [Compound 32-5]
13 nM	Cc1c(C(=O)NC2CCN(C)CC2)sc2ncnc(Nc3ccc(C#N)cc3OC(CF)CF)c12 [Compound 50, 4-(4-Cyano-2-(2-fluoro-1-fluoromethyl-ethoxy)-phenylamino]-5-methyl-thieno[2,3-d]pyrimidine-6-carboxylic acid (1-methyl-piperidin-4-yl)-amide]
13 nM	Cc1c(C(=O)O)sc2ncnc(Nc3ccc(F)cc3OCCO)c12 [Compound 32-9]
23 nM	Cc1c(C(=O)NCCCN(C)C)sc2ncnc(Nc3ccc(F)cc3OCC(F)F)c12 [Compound 32-19]
13 nM	COCC(CF)Oc1cc(F)ccc1Nc1ncnc2sc(C(=O)NCCO)c(C)c12 (stereo not drawn) [Compound 32-25]
8 nM	Cc1c(C(N)=O)sc2ncnc(Nc3ccc(F)cc3OCC3CC3(F)F)c12 (stereo not drawn) [Compound 32-21]
30 nM	Cc1c(C(=O)NCCO)sc2ncnc(Nc3ccc(F)cc3OCC(F)F)c12 [Compound 32-18]
677 nM	COC(=O)c1sc2ncnc(Nc3ccc(F)cc3OC(C)CCNC(=O)C(C)C)c2c1C (stereo not drawn) [Compound 13-3, Methyl 4-(4-fluoro-2-(4-isobutyramido-butan-2-yloxy)-phenylamino)-5-methylthieno[2,3-d]pyrimidine-6-carboxylate]
16 nM	Cc1c(C(N)=O)sc2ncnc(Nc3cccnc3OCC3(CC#N)CC3)c12 [Compound 33-4]

IC50	SMILES
25 nM	Cc1c(C(=O)NCC#CCN(C)C)sc2ncnc(Nc3ccc(C#N)cc3OC(CF)CF)c12 [Compound 52, 4-(4-Cyano-2-(2-fluoro-1-fluoromethyl-ethoxy)-phenylamino]-5-methyl-thieno[2,3-d]pyrimidine-6-carboxylic acid (4-dimethylamino-but-2-ynyl)-amide]
898 nM	CCCCNC(=O)NCCC(C)Oc1cc(F)ccc1Nc1ncnc2sc(C(=O)OC)c(C)c12 (stereo not drawn) [Compound 13-4, Methyl 4-(2-(4-(3-butylureido)-butan-2-yloxy)-4-fluorophenyl-amino)-5-methylthieno[2,3-d]pyrimidine-6-carboxylate]
66 nM	Cc1c(C(=O)NCCCN(C)C)sc2ncnc(Nc3ccc(F)cc3OCC(F)(F)F)c12 [Compound 32-16]
342 nM	CNC(=O)c1sc2ncnc(Nc3ccc(F)cc3OC(C)CNC(=O)OC(C)(C)C)c2c1C (stereo not drawn) [Compound 1-3, tert-Butyl 2-(5-fluoro-2-(5-methyl-6-(methylcarbamoyl)thieno[2,3-d]pyrimidin-4-ylamino)phenoxy)propylcarbamate]
44 nM	Cc1c(C(N)=O)sc2ncnc(Nc3cccnc3OC(C)CCN)c12 (stereo not drawn) [Compound 16-4]
26 nM	CCNC(=O)c1sc2ncnc(Nc3cccnc3OC(C)C)c2c1C [Compound 36-3]
459 nM	Cc1c(C(=O)NCCO)sc2ncnc(Nc3ccc(F)cc3OC(C)CNC(=O)OC(C)(C)C)c12 (stereo not drawn) [Compound 1-5, tert-Butyl 2-(5-fluoro-2-(6-(2-hydroxyethyl-carbamoyl)-5-methylthieno[2,3-d]-pyrimidin-4-yl-amino)-phenoxy)propyl-carbamate]
27 nM	CNC(=O)CNC(=O)c1sc2ncnc(Nc3cccnc3OC(C)C)c2c1C [Compound 36-7, 4-(2-Isopropoxypyridin-3ylamino)-5-methyl-N-(2-(methylamino)-2-oxoethyl)thieno[2,3-d]pyrimidine-6-carboxamide]
11 nM	Cc1c(C(N)=O)sc2ncnc(Nc3cccnc3OC(C)C(F)(F)F)c12 (stereo not drawn) [Compound 21-3, 5-Methyl-4-(2-(1,1,1-trifluoropropan-2-yloxy)pyridin-3-ylamino)thieno[2,3-d]pyrimidine-6-carboxamide]
69 nM	Cc1c(C(=O)NCCCN(C)C)sc2ncnc(Nc3ccc(F)cc3OCCO)c12 [Compound 32-34]
84 nM	Cc1c(C(=O)NCCCN(C)C)sc2ncnc(Nc3cccnc3OC(C)CCNS(C)(=O)=O)c12 (stereo not drawn) [Compound 46, 4-[2-(3-Methanesulfonylamino-1-methyl-propoxy)-pyridin-3-ylamino]-5-methyl-thieno[2,3-d]pyrimidine-6-carboxylic acid (3-dimethylamino-propyl)-amide]
18 nM	Cc1c(C(N)=O)sc2ncnc(Nc3cccnc3OCC(F)F)c12 [Compound 30-3, 4-(2-(2,2-Difluoroethoxy)pyridin-3-ylamino)-5-methyl-thieno[2,3-d]pyrimidine-6-carboxamide]
31 nM	Cc1c(C(=O)NCCO)sc2ncnc(Nc3cccnc3OC(C)C)c12 [Compound 36-12, N-(2-Hydroxyethyl)-4-(2-isopropoxypyridin-3ylamino)-5-methylthieno[2,3-d]pyrimidine-6-carboxamide]
45 nM	Cc1c(C(=O)NCCCO)sc2ncnc(Nc3cccnc3OC(C)C)c12 [Compound 36-11, N-(3-Hydroxypropyl)-4-(2-isopropoxypyridin-3ylamino)-5-methylthieno[2,3-d]pyrimidine-6-carboxamide]
7 nM	Cc1c(C(=O)NS(C)(=O)=O)sc2ncnc(Nc3ccc(F)cc3OC(CF)CF)c12 [Compound 24, 4-(2-(1,3-Difluoropropan-2-yloxy)-4-fluorophenylamino)-5-methyl-N-(methylsulfonyl)thieno[2,3-d]pyrimidine-6-carboxamide]
23 nM	CNC(=O)c1sc2ncnc(Nc3ccc(F)cc3OC(C)CN)c2c1C (stereo not drawn) [Compound 2-4, 4-(2-(1-Amino-propan-2-yloxy)-4-fluorophenylamino)-N-5-methyl-thieno[2,3-d]-pyrimidin-6-carboxamide trifluoroacetate]

SMILES	IC50
Cc1c(C(=O)O)sc2ncnc(Nc3ccc(F)cc3OC(C)CNC(=O)OC(C)(C)C)c12 (stereo not drawn) [Compound 1-2, 4-(2-(1-(tert-Butoxycarbonylamino)propan-2-yloxy)-4-fluorophenylamino)-5-methyl-thieno[2,3-d]pyrimidine-6-carboxylic acid]	52 nM
